Reference: publication PMC6792352, “Limited Chemical Structural Diversity Found to Modulate Thyroid Hormone Receptor in the Tox21 Chemical Library” (Environmental Health Perspectives, 2019)
Structures can show the parent of a compound that is named as a salt.

Assay: in vitro
Conditions: rat, gh3-tre-luc cells, AC50 (uM) modified / 1000
Work on `NC(Cc1ccc(Cl)cc1)C(=O)O` (centres unmarked) [Fenclonine] yielded a CC50 at 24 h greater than 50 µM. For `CCCCOC(=O)c1ccccc1C(=O)OCCCC` [Dibutyl phthalate], the CC50 at 24 h was greater than 90 µM. `CCNS(=O)(=O)C(F)(F)C(F)(F)C(F)(F)C(F)(F)C(F)(F)C(F)(F)C(F)(F)C(F)(F)F` [N-Ethylperfluorooctanesulfonamide] gave a CC50 at 24 h greater than 90 µM. With `CCN(C=O)CC` [Diethylformamide] the CC50 at 24 h was greater than 90 µM. In the case of `c1ccc2c(c1)-c1cccc3c1c-2cc1ccccc13` [Benzo(b)fluoranthene], the CC50 at 24 h is reported as greater than 90 µM. Molecule `Cc1c(C)c2c(c(C)c1OC(=O)c1cccnc1)CC[C@@](C)(CCC[C@H](C)CCC[C@H](C)CCCC(C)C)O2` (racemic) [DL-alpha Tocopheryl nicotinate] has a CC50 at 24 h greater than 50 µM. `CCC(=O)OC(=O)CC` [Propanoic anhydride] showed a CC50 at 24 h greater than 90 µM. For `O=c1[nH]sc2ccccc12` [1,2-Benzisothiazolin-3-one], the CC50 at 24 h was 5.86 µM. Work on `ClC(Cl)Cl` [Chloroform] yielded a CC50 at 24 h greater than 90 µM. For `CN1[C@@H]2CC[C@H]1CC(NC(=O)n1c(=O)[nH]c3ccccc31)C2` (some centres unmarked) [Itasetron], the CC50 at 24 h was greater than 50 µM. Work on `Clc1ccc(C2(Cn3cncn3)CC(Br)CO2)c(Cl)c1` (centres unmarked) [Bromuconazole] yielded a CC50 at 24 h greater than 90 µM. `CC(C)(C)C(=O)C(Oc1ccc(Cl)cc1)n1cncn1` (centres unmarked) [Triadimefon] showed a CC50 at 24 h greater than 90 µM. `Cc1ccc(N)c(S(=O)(=O)O)c1` [2-Amino-5-methylbenzenesulfonic acid] gave a CC50 at 24 h greater than 90 µM. `NCCc1ccc(O)cc1` [Tyramine hydrochloride] gave a CC50 at 24 h greater than 90 µM. For `CC(C)c1c(CN(C)C(C)Cc2ccccc2)n(C)n(-c2ccccc2)c1=O` (centres unmarked) [Famprofazone], the CC50 at 24 h was greater than 20 µM. Molecule `O=[N+]([O-])c1ccc2[nH]cnc2c1` [6-Nitrobenzimidazole] has a CC50 at 24 h greater than 90 µM. In the case of `COc1cccc(O)c1O` [3-Methoxycatechol], the CC50 at 24 h is reported as 70.4 µM. `C=CC1=C(C(=O)O)N2C(=O)[C@@H](NC(=O)/C(=N\O)c3csc(N)n3)[C@H]2SC1` [Cefdinir] showed a CC50 at 24 h greater than 50 µM. `FC(F)(F)c1cccc(C2=CCN(CCc3ccc4ccccc4c3)CC2)c1` [Xaliproden hydrochloride] gave a CC50 at 24 h greater than 50 µM. `N#CCc1ccc(Cl)cc1Cl` [(2,4-Dichlorophenyl)acetonitrile] showed a CC50 at 24 h greater than 90 µM. Work on `CC(=O)OC/C=C(\C)CC/C=C(\C)CCC=C(C)C` [trans,trans-Farnesyl acetate] yielded a CC50 at 24 h greater than 90 µM. In the case of `Cc1ccc(N(CC2=NCCN2)c2cccc(O)c2)cc1` [Phentolamine], the CC50 at 24 h is reported as 45.1 µM. `CC(=O)c1cc(C(C)(C)C)cc2c1CCC2(C)C` [1-(6-tert-Butyl-1,1-dimethyl-2,3-dihydro-1H-inden-4-yl)ethanone] showed a CC50 at 24 h of 40.7 µM. Work on `CCC(C)CCCC(C)(C)O` (centres unmarked) [2,6-Dimethyloctan-2-ol] yielded a CC50 at 24 h greater than 90 µM. Molecule `Cc1cc(OI)c(C(C)C)cc1-c1cc(C(C)C)c(OI)cc1C` [Thymol iodide] has a CC50 at 24 h greater than 50 µM. For `O=C(O)CC(O)C(=O)O` (centres unmarked) [Malic acid], the CC50 at 24 h was greater than 90 µM. In the case of `C=CC(=O)OCCOCCOCC` [2-(2-Ethoxyethoxy)ethyl prop-2-enoate], the CC50 at 24 h is reported as greater than 90 µM. For `CCCCC(CC)CN` (centres unmarked) [2-Ethylhexylamine], the CC50 at 24 h was greater than 90 µM. With `c1ccc2c(c1)CCCC2C1=NCCN1` (centres unmarked) [Tetrahydrozoline hydrochloride] the CC50 at 24 h was greater than 50 µM. For `Clc1ccc2[nH]nnc2c1` [5-Chlorobenzotriazole], the CC50 at 24 h was greater than 90 µM. Molecule `CC(C)C(=O)c1ccccc1` [Isopropyl phenyl ketone] has a CC50 at 24 h greater than 90 µM. `O=C1OC(O)C(C(Cl)Cl)=C1Cl` (centres unmarked) [3-Chloro-4-(dichloromethyl)-5-hydroxy-2(5H)-furanone] gave a CC50 at 24 h of 35 µM. For `C/C=C/CC#N` [3-Pentenenitrile], the CC50 at 24 h was greater than 90 µM. Molecule `COc1ccccc1[N+](=O)[O-]` [1-Methoxy-2-nitrobenzene] has a CC50 at 24 h greater than 90 µM. For `CCC(C)c1ccccc1O` (centres unmarked) [2-(Butan-2-yl)phenol], the CC50 at 24 h was greater than 90 µM. In the case of `Clc1ccccc1Cl` [1,2-Dichlorobenzene], the CC50 at 24 h is reported as greater than 90 µM. With `Cc1cc(=O)nc(C(C)C)[nH]1` [2-Isopropyl-6-methyl-4-pyrimidone] the CC50 at 24 h was greater than 90 µM. `CC(=O)OCC(COC(C)=O)OC(C)=O` [Triacetin] gave a CC50 at 24 h greater than 90 µM. `C=CCOCC(CC)(CO)COCC=C` [2,2-Bis[(prop-2-en-1-yloxy)methyl]butan-1-ol] showed a CC50 at 24 h greater than 90 µM. With `C#CCN[C@@H]1CCc2ccccc21` [Rasagiline mesylate] the CC50 at 24 h was greater than 50 µM. In the case of `CN(C)CCCNCCCN` [Dimethyldipropylenetriamine], the CC50 at 24 h is reported as greater than 90 µM. `C1=CC2C3C=CC(C3)C2C1` (centres unmarked) [Dicyclopentadiene] showed a CC50 at 24 h greater than 90 µM. With `CC(C)(C)c1ccc(CN2CCN(C(c3ccccc3)c3ccc(Cl)cc3)CC2)cc1` (centres unmarked) [Buclizine dihydrochloride] the CC50 at 24 h was 32.6 µM. With `Cc1cc(Cc2ccc(N)c(C)c2)ccc1N` [4,4'-Diamino-3,3'-dimethyldiphenylmethane] the CC50 at 24 h was greater than 90 µM. In the case of `CCc1ccc(O)cc1` [4-Ethylphenol], the CC50 at 24 h is reported as greater than 90 µM. Work on `O=c1[nH]c(=O)n([C@H]2C[C@H](O)[C@@H](CO)O2)cc1C(F)(F)F` [Trifluridine] yielded a CC50 at 24 h greater than 50 µM. `CCOc1cc(OCC)c(C(=O)CCC(=O)O)cc1OCC` [Trepibutone] showed a CC50 at 24 h greater than 50 µM. With `NCCNC(=O)c1ccc(Cl)cn1` [Lazabemide hydrochloride] the CC50 at 24 h was greater than 50 µM. With `N=C(N)NCc1cccc(I)c1` [3-Iodobenzylguanidine hemisulfate] the CC50 at 24 h was greater than 50 µM. Work on `CC(C(=O)O)c1ccc(C(=O)c2cccs2)cc1` (centres unmarked) [Suprofen] yielded a CC50 at 24 h greater than 20 µM. For `NCCc1cc[nH]n1` [Betazole hydrochloride], the CC50 at 24 h was greater than 20 µM. With `C[C@H](CCC(=O)O)[C@H]1CC[C@H]2[C@@H]3C(=O)C[C@@H]4CC(=O)CC[C@]4(C)[C@H]3CC(=O)[C@]12C` [Dehydrocholic acid] the CC50 at 24 h was greater than 50 µM. `Clc1cccc(Cl)c1Cl` [1,2,3-Trichlorobenzene] gave a CC50 at 24 h greater than 90 µM. In the case of `Cc1cn([C@H]2C[C@H](N=[N+]=[N-])[C@@H](CO)O2)c(=O)[nH]c1=O` [3'-Azido-3'-deoxythymidine], the CC50 at 24 h is reported as greater than 90 µM. `Cc1ncc([C@@H](CCCCCCc2ccc3c(n2)NCCC3)CC(=O)O)cn1` [PharmaGSID_47333] showed a CC50 at 24 h greater than 90 µM. Work on `CCOC(=O)[N-]c1cn(N2CCOCC2)n[o+]1` [Molsidomine] yielded a CC50 at 24 h greater than 20 µM. `CC(C)C1CCC(Cc2ccc(Cl)cc2)C1(O)Cn1cncn1` (centres unmarked) [Ipconazole] gave a CC50 at 24 h of 41.7 µM. In the case of `CC(C)(O)CCc1ccccc1` [2-Methyl-4-phenylbutan-2-ol], the CC50 at 24 h is reported as greater than 90 µM. Work on `CN1CCCC(CC2c3ccccc3Sc3ccccc32)C1` (centres unmarked) [Metixene hydrochloride] yielded a CC50 at 24 h of 8.17 µM. `CN1CCN2c3ccccc3Cc3ccccc3C2C1` (centres unmarked) [Mianserin] showed a CC50 at 24 h of 20.6 µM. Work on `CC1(C)NC(=O)NC1=O` [5,5-Dimethylhydantoin] yielded a CC50 at 24 h greater than 90 µM. With `C=CC(=O)NCOCC(C)C` [N-(Isobutoxymethyl)acrylamide] the CC50 at 24 h was greater than 90 µM. `CC(CCC(=O)O)(c1ccc(O)cc1)c1ccc(O)cc1` [Diphenolic acid] showed a CC50 at 24 h greater than 90 µM. `O=C(O)c1c(Cl)cccc1Cl` [2,6-Dichlorobenzoic acid] gave a CC50 at 24 h greater than 90 µM. With `CC(C)CCC[C@@H](C)[C@H]1CC(=O)C2=C3CC[C@H]4C[C@@H](O)CC[C@]4(C)[C@H]3CC[C@@]21C` [Colestolone] the CC50 at 24 h was greater than 50 µM. In the case of `CCC#N` [Propionitrile], the CC50 at 24 h is reported as greater than 100 µM. In the case of `CC[C@@H](C)[C@@H](N)C(=O)O` [D-Isoleucine], the CC50 at 24 h is reported as greater than 50 µM. For `CC1(C)OC[C@@H](COC(=O)CCc2ccc(OC[C@@H](O)CNCCNC(=O)N3CCOCC3)cc2)O1` [Landiolol hydrochloride], the CC50 at 24 h was greater than 50 µM. `CN(Cc1cc(Br)cc(Br)c1N)C1CCCCC1` [Bromhexine hydrochloride] gave a CC50 at 24 h of 42.9 µM. Work on `C/C=C1\[C@H]2C=C(C)C[C@]1(N)c1ccc(=O)[nH]c1C2` [Huperzine A] yielded a CC50 at 24 h greater than 50 µM. In the case of `NS(=O)(=O)c1ccc(C(=O)O)cc1` [Carzenide], the CC50 at 24 h is reported as greater than 50 µM. For `O=c1c(O)c(-c2ccc(O)cc2O)oc2cc(O)cc(O)c12` [Morin hydrate], the CC50 at 24 h was greater than 90 µM. Work on `CCSC(=O)N(CC(C)C)CC(C)C` [Butylate] yielded a CC50 at 24 h greater than 90 µM. For `CCOC(=O)C1=C(COCCN)NC(C)=C(C(=O)OC)C1c1ccccc1Cl` (centres unmarked) [Amlodipine besylate], the CC50 at 24 h was 19.7 µM. For `O=S(=O)(Oc1ccc(Cl)cc1)c1ccccc1` [Fenson], the CC50 at 24 h was greater than 90 µM. With `COc1ccc(C[C@@H](C)NC[C@H](O)c2ccc(O)c(NC=O)c2)cc1` [Formoterol hemifumarate] the CC50 at 24 h was greater than 50 µM. With `Brc1ccc(Oc2ccccc2)cc1` [p-Bromodiphenyl ether] the CC50 at 24 h was greater than 90 µM.

Same assay, conditions: rat, gh3-tre-luc cells, AC50 (uM) modified / 1000, Tox21_110001=Tox21_111308; viability, 1 nM T3 present, 24 h
In the case of `c1ccc2c(c1)sc1ccccc12` [Dibenzothiophene], the CC50 at 24 h is reported as greater than 50 µM.

Same assay, conditions: rat, gh3-tre-luc cells, AC50 (uM) modified / 1000, Tox21_110001=Tox21_200283; viability, 1 nM T3 present, 24 h
Work on `O=NN(CCO)CCO` [N-Nitrosodiethanolamine] yielded a CC50 at 24 h greater than 90 µM.

Same assay, conditions: rat, gh3-tre-luc cells, AC50 (uM) modified / 1000, Tox21_110001=Tox21_201048; viability, 1 nM T3 present, 24 h
Molecule `Cc1c[nH]cn1` [4-Methylimidazole] has a CC50 at 24 h greater than 90 µM.

Same assay, conditions: rat, gh3-tre-luc cells, AC50 (uM) modified / 1000, Tox21_110001=Tox21_201457; viability, 1 nM T3 present, 24 h
In the case of `O=NN(c1ccccc1)c1ccccc1` [N-Nitrosodiphenylamine], the CC50 at 24 h is reported as greater than 90 µM.

Same assay, conditions: rat, gh3-tre-luc cells, AC50 (uM) modified / 1000, Tox21_110001=Tox21_201613; viability, 1 nM T3 present, 24 h
`O=[N+]([O-])c1ccc(Cl)c(Cl)c1` [3,4-Dichloronitrobenzene] showed a CC50 at 24 h greater than 90 µM.

Same assay, conditions: rat, gh3-tre-luc cells, AC50 (uM) modified / 1000, Tox21_110001=Tox21_300743; viability, 1 nM T3 present, 24 h
`CC(C)(C)c1cc([N+](=O)[O-])cc([N+](=O)[O-])c1O` [Dinoterb] gave a CC50 at 24 h of 8.14 µM.

Same assay, conditions: rat, gh3-tre-luc cells, AC50 (uM) modified / 1000, Tox21_110001=Tox21_301003; viability, 1 nM T3 present, 24 h
`Cc1nc(N(C)C)nc(OC(=O)N(C)C)c1C` [Pirimicarb] showed a CC50 at 24 h greater than 90 µM.

Same assay, conditions: rat, gh3-tre-luc cells, AC50 (uM) modified / 1000, Tox21_110001=Tox21_302850; viability, 1 nM T3 present, 24 h
`CN(N=O)C(N)=O` [N-Nitroso-N-methylurea] showed a CC50 at 24 h greater than 90 µM.

Same assay, conditions: rat, gh3-tre-luc cells, AC50 (uM) modified / 1000, Tox21_110001=Tox21_303415; viability, 1 nM T3 present, 24 h
With `c1ccc2c(c1)sc1ccccc12` [Dibenzothiophene] the CC50 at 24 h was greater than 90 µM.
